Read-outs that look alike come from different tables or passages of the source.
How the values were obtained:
[1] = target: T1, Drosophila OR13a (Drosophila melanogaster, UniProt Q9VXL0); test: Calcium ion fluorescence (GCaMP6) assay, OR13a stable HEK293 cell line; assay type: cell-based
T1 construct: expressed in transfected cells
T1 sequence (Q9VXL0 1-418): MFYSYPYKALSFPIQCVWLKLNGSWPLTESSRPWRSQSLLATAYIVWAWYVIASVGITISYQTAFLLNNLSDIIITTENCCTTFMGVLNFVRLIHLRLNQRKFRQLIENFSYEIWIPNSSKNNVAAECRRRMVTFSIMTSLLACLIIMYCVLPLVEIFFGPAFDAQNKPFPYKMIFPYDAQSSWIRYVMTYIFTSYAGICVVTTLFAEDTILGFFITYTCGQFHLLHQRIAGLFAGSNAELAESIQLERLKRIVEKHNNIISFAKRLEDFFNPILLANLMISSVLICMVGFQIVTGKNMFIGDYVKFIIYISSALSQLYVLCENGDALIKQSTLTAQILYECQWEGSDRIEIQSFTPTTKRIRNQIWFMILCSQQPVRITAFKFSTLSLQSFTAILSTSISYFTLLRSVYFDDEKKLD
T1 sequence (Q9VNB5 1-486 partner): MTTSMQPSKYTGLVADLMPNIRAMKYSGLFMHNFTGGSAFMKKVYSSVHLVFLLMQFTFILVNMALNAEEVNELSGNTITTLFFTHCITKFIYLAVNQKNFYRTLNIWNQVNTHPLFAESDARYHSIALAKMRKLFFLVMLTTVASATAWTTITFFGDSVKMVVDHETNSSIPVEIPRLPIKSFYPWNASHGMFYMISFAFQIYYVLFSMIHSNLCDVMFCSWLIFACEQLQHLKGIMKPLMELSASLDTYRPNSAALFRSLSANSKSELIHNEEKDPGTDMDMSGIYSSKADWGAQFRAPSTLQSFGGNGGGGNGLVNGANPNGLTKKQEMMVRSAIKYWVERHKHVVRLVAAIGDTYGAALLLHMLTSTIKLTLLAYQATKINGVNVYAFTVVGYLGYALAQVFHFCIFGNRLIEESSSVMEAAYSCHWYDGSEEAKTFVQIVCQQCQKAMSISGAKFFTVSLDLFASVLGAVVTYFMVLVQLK
Outline: (§1)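 Responses are VUAA1-normalized ΔF: each VOC-evoked calcium signal, (FMAX−F0)/F0 over 30 s after injection, divided by the same line's mean 50 µM VUAA1 response. Cells were doxycycline-induced HEK293 with GCaMP6 and the cognate Drosophila OR, in HEPES buffer pH 7.3; ligands tested 0.01–100 μM.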

[2] = target: T2, Drosophila OR49b (Drosophila melanogaster, UniProt Q9V6H2); test: cell-based; settings: for activation at 1 µM / activation at 10 µM / activation at 100 µM: HEK293; for Average response: mean of biological replicates
T2 construct: expressed in transfected cells
T2 sequence (Q9V6H2 1-375): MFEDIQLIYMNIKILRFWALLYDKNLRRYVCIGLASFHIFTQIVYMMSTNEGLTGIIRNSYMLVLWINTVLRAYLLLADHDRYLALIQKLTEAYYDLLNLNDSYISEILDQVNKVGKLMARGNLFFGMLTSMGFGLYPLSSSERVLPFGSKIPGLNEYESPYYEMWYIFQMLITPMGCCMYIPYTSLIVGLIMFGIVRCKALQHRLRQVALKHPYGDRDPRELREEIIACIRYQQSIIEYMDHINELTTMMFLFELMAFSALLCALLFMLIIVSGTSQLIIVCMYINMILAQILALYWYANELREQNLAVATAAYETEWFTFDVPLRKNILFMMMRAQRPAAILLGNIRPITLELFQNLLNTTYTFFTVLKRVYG
T2 sequence (Q9VNB5 1-486 partner): T1 sequence (Q9VNB5 1-486 partner)
Outline: as §1

[3] = HEK293, read-out: OR13a Average response (VUAA1-normalized), 1 μM VOC, 50 μM VUAA1 = 1, responses not exceeding 0.05 considered 0
[4] = HEK293, read-out: OR13a Average response (VUAA1-normalized), 10 μM VOC, 50 μM VUAA1 = 1, responses not exceeding 0.05 considered 0
[5] = HEK293, read-out: OR13a Average response (VUAA1-normalized), 100 μM VOC, 50 μM VUAA1 = 1, responses not exceeding 0.05 considered 0
[6] = concentration 1, normalized fluorescence change, values below 0.05 threshold given as 0
[7] = concentration 10, normalized fluorescence change, values below 0.05 threshold given as 0
[8] = concentration 100, normalized fluorescence change, values below 0.05 threshold given as 0
[9] = OR49b cell line, odorant cc. 1 µM
[10] = OR49b cell line, odorant cc. 10 µM
[11] = OR49b cell line, odorant cc. 100 µM
[12] = ligand concentration 1 (unit not given), 0.05 threshold, values below shown as 0
[13] = ligand concentration 10 (unit not given), 0.05 threshold, values below shown as 0

COc1cccc(OC)c1 [1,3-dimethoxy benzene]
activation at 1 µM [1, 3]: 0%
activation at 10 µM [1, 4]: 0%
activation at 100 µM [1, 5]: 3.71%
activation at 1 µM ([1]; HEK293, read-out: OR13a response (VUAA1-normalized response), VOC concentration 1 μM): 0%
activation at 10 µM ([1]; HEK293, read-out: OR13a response (VUAA1-normalized response), VOC concentration 10 μM): 0%
activation at 100 µM ([1]; HEK293, read-out: OR13a response (VUAA1-normalized response), VOC concentration 100 μM): 0%
DF norm AVERAGE OR13a [1, 6]: 0
DF norm AVERAGE OR13a [1, 7]: 0
DF norm AVERAGE OR13a [1, 8]: 0
DF norm AVERAGE OR49b [2]: 0
activation at 1 µM ([2]; VOC concentration 1 μM, read-out: OR49b response (VUAA1-normalized response)): 0%
activation at 10 µM ([2]; VOC concentration 10 μM, read-out: OR49b response (VUAA1-normalized response)): 0%
activation at 100 µM ([2]; VOC concentration 100 μM, read-out: OR49b response (VUAA1-normalized response)): 0%
Average response [2, 9]: 0.00
Average response [2, 10]: 0.00
Average response [2, 11]: 0.00

C=C(C)C1CCC2(C)OC2C1 (single isomer, unassigned; (+)) [(+)-limonene oxide]
OR13a Average response (VUAA1-normalized) ([1]; 1 μM VOC, 50 μM VUAA1 = 1, responses not exceeding 0.05 considered 0): 0.00
OR13a Average response (VUAA1-normalized) ([1]; 10 μM VOC, 50 μM VUAA1 = 1, responses not exceeding 0.05 considered 0): 0.00
OR13a Average response (VUAA1-normalized) ([1]; 100 μM VOC, 50 μM VUAA1 = 1, responses not exceeding 0.05 considered 0): 0.00
OR13a response (VUAA1-normalized response) ([1]; VOC concentration 1 μM): 0.00
OR13a response (VUAA1-normalized response) ([1]; VOC concentration 10 μM): 0.00
OR13a response (VUAA1-normalized response) ([1]; VOC concentration 100 μM): 0.00
DF norm AVERAGE OR13a [1, 6]: 0
DF norm AVERAGE OR13a [1, 7]: 0
DF norm AVERAGE OR13a [1, 8]: 0
DF norm AVERAGE OR49b [2]: 0
Average response [2, 9]: 0.00
Average response [2, 10]: 0.00
Average response [2, 11]: 0.00
OR49b response (VUAA1-normalized response) ([2]; VOC concentration 1 μM): 0.00
OR49b response (VUAA1-normalized response) ([2]; VOC concentration 10 μM): 0.00
OR49b response (VUAA1-normalized response) ([2]; VOC concentration 100 μM): 0.00

Cc1ccccc1 [toluene]
activation at 1 µM [1, 3]: 0%
activation at 10 µM [1, 4]: 0%
activation at 100 µM [1, 5]: 0%
OR13a response (VUAA1-normalized) at 1 μM ([1]; OR13a cell line, VOC concentration 1 μM): 0.00
OR13a response (VUAA1-normalized) at 10 μM ([1]; OR13a cell line, VOC concentration 10 μM): 0.00
OR13a response (VUAA1-normalized) at 100 μM ([1]; OR13a cell line, VOC concentration 100 μM): 0.00
DF norm AVERAGE OR13a [1, 12]: 0
DF norm AVERAGE OR13a [1, 13]: 0
DF norm AVERAGE OR13a ([1]; ligand concentration 100 (unit not given), 0.05 threshold, values below shown as 0): 0
activation at 1 µM ([2]; 1 μM VOC, 50 μM VUAA1 = 1, read-out: OR49b Average response (VUAA1-normalized)): 0%
activation at 10 µM ([2]; 10 μM VOC, 50 μM VUAA1 = 1, read-out: OR49b Average response (VUAA1-normalized)): 0%
activation at 100 µM ([2]; 100 μM VOC, 50 μM VUAA1 = 1, read-out: OR49b Average response (VUAA1-normalized)): 44%
OR49b response (VUAA1-normalized) at 1 μM ([2]; OR49b cell line, VOC concentration 1 μM): 0.00
OR49b response (VUAA1-normalized) at 10 μM ([2]; OR49b cell line, VOC concentration 10 μM): 0.00
OR49b response (VUAA1-normalized) at 100 μM ([2]; OR49b cell line, VOC concentration 100 μM): 0.44
Average response [2, 9]: 0.00
Average response [2, 10]: 0.00
Average response [2, 11]: 0.44
DF norm AVERAGE OR49b [2, 12]: 0
DF norm AVERAGE OR49b [2, 13]: 0
DF norm AVERAGE OR49b ([2]; ligand concentration 100 (unit not given), […]): 0.4351

— publication PMC10709440, “High-throughput ligand profile characterization in novel cell lines expressing seven heterologous insect olfactory receptors for the detection of volatile plant biomarkers” (Scientific Reports, 2023)
